Data as given in patent US7994119B2, “Compounds for control of appetite” (University Of Cincinnati, priority 2004, dated 2011).

How the values were obtained:
129/J male mice = test: feeding patterns of fasted mice after intraperitoneal injection (food intake); type: in vivo; conditions: mice fasted 24 hours; for control of food intake (PYY analogs): numbers only in FIGS. 3-5
Description: To study the feeding patterns of animals treated with the extended tripeptide BG-116, eight week old 129/J male mice are individually housed under 12-hour light/dark cycles with free access to water and standard chow. After acclimatizing for two weeks, mice are fasted 24 hours before the experiment. Saline (0.1 ml) or peptide (2 mg/mice) in saline (0.1 ml) is injected intraperitoneally, and the food intake during the next 4, 6, and 24 hours is monitored and quantified.
To study the feeding patterns of animals treated with the O-glycosylated tripeptide, eight week old 129/J male mice are individually housed under 12-hour light/dark cycles with free access to water and standard chow. After acclimatizing for two weeks, mice are fasted 24 hours before the experiment. Saline (0.1 ml) or peptide (2 mg/mice) in saline (0.1 ml) is injected intraperitoneally, and the food intake during the next 4 and 6 hours is monitored and quantified.
To study the feeding patterns of animals treated with BT-48 or N-α-Ac[Nle^24,28, Trp^30, Nva^31, ψ^35/36]PYY(22-36)-NH2 wherein ψ is —CH2-NH— (SEQ. ID. NO. 8), eight week old 129/J male mice are individually housed under 12-hour light/dark cycles with free access to water and standard chow. After acclimatizing for two weeks, mice are fasted 24 hours before the experiment. Saline (0.1 ml) or peptide (100 μg/mice) in saline (0.1 ml) is injected intraperitoneally, and the food intake during the next 4 and 6 hours is monitored and quantified.
To study the feeding patterns of animals treated with the BT-56 or N-α-Ac-[Trp^27, ψ^35/36]PYY(25-36)-NH2 wherein ψ is —CH2-NH— (SEQ. ID. NO. 7), eight week old 129/J male mice are individually housed under 12-hour light/dark cycles with free access to water and standard chow. After acclimatizing for two weeks, mice are fasted 24 hours before the experiment. Saline (0.1 ml) or peptide (100 μg/mice) in saline (0.1 ml) is injected intraperitoneally, and the food intake during the next 4 hours is monitored and quantified.
To study the feeding patterns of animals treated with BWX-115 or N-α-Ac-[Trp^30]PYY(25-36)-NH2 wherein ψ is —CH2-NH— (SEQ. ID. NO. 6), eight week old 129/J male mice are individually housed under 12-hour light/dark cycles with free access to water and standard chow. After acclimatizing for two weeks, mice are fasted 24 hours before the experiment. Saline (0.1 ml) or peptide (20 μg/mice) in saline (0.1 ml) is injected intraperitoneally, and the food intake during the next 4 and 24 hours is monitored and quantified.

Y4 = Y4 (Homo sapiens, UniProt P50391); conditions: cited from earlier work
Y5 = molecular target: T1, Y5 (Homo sapiens, UniProt Q15761); conditions: cited from earlier work
T1 sequence (Q15761 1-445): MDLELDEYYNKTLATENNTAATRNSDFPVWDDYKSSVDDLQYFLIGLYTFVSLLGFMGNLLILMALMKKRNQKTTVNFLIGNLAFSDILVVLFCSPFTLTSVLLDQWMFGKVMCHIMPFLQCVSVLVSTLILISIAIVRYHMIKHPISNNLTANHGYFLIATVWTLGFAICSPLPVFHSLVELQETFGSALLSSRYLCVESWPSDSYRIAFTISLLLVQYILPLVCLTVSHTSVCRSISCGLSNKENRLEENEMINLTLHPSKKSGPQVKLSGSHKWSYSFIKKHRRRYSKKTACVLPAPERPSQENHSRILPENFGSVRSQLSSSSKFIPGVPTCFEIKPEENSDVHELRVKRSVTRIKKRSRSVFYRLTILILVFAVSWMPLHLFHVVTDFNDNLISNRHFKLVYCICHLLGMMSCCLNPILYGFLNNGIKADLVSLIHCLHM

[1] = system: normal and fasted mice and rats, normal and obese humans; conditions: peripheral administration; cited from earlier work

Y4, sequence (P50391 whole entry): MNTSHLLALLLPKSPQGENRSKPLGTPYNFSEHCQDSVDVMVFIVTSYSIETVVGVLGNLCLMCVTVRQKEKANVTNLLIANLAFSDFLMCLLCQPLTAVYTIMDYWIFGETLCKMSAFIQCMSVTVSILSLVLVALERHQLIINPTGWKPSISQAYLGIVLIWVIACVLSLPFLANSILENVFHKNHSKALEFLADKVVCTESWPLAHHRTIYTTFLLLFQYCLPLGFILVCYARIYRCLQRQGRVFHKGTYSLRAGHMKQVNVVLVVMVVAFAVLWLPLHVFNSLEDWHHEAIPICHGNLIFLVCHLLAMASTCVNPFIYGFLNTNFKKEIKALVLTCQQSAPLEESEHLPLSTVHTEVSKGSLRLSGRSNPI

## N-α-Ac-[Trp^27, ψ^35/36]PYY(25-36)-NH2 (Ac-RHWLNLVTRQRY-NH2; also: reduced CH2-NH bond between residues 35/36) [BT-56]
129/J male mice
  control of food intake (PYY analogs): could be used to control food intake in animals and humans

## N-α-Ac-[Trp^30]PYY(25-36)-NH2 (Ac-RHYLNWVTRQRY-NH2) [BWX-115]
129/J male mice
  control of food intake (PYY analogs): could be used to control food intake in animals and humans

## N-α-Ac-Trp-Arg-Tyr-[β-D-Glc]-NH2 [BG-7]
129/J male mice; numbers only in FIG. 2
  inhibition of feeding (O-glycosylated tripeptide): can inhibit feeding in subjects

## PYY(3-36): a NPY Y2-preferring ligand
Y4
  activation of Y4 receptors: potently activate
Y5
  activation of Y5 receptors: potently activate
[1]
  food intake: attenuate food intake

## N-α-Ac[Nle^24,28, Trp^30, Nva^31, ψ^35/36]PYY(22-36)-NH2 (ASXRHYXNWXTRQRY; N-acetyl, C-amide, reduced CH2-NH bond 35/36; Artficial peptide) [BT-48]
129/J male mice
  control of food intake (PYY analogs): could be used to control food intake in animals and humans
